Laboratory results: BindingDB's records for doi:10.1016/j.ejphar.2003.10.004 (Yamanouchi Pharmaceutical, 2004)

Columns and labels:
[1] = target: 5-hydroxytryptamine receptor 2A (Homo sapiens, UniProt P28223)
[2] = target: 5-hydroxytryptamine receptor 2B (Homo sapiens, UniProt P41595)
[3] = target: T1, 5-hydroxytryptamine receptor 2C (Homo sapiens, UniProt P28335)
T1 sequence (P28335 whole entry): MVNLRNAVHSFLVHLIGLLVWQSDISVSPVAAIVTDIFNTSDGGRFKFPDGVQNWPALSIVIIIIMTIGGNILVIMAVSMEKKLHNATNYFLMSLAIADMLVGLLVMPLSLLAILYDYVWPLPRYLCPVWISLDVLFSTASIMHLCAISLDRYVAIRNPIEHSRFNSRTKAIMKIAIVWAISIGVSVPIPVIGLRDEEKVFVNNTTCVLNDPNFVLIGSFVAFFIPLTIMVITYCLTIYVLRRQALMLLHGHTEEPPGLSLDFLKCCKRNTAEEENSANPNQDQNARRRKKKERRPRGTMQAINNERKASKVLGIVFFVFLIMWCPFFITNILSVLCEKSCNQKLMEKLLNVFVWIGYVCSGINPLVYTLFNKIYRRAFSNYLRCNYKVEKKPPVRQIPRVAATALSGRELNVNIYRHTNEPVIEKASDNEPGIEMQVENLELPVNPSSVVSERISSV

[4] = target: 5-hydroxytryptamine receptor 7 (Homo sapiens, UniProt P34969)
Chain of 5-hydroxytryptamine receptor 7 (P34969 whole entry): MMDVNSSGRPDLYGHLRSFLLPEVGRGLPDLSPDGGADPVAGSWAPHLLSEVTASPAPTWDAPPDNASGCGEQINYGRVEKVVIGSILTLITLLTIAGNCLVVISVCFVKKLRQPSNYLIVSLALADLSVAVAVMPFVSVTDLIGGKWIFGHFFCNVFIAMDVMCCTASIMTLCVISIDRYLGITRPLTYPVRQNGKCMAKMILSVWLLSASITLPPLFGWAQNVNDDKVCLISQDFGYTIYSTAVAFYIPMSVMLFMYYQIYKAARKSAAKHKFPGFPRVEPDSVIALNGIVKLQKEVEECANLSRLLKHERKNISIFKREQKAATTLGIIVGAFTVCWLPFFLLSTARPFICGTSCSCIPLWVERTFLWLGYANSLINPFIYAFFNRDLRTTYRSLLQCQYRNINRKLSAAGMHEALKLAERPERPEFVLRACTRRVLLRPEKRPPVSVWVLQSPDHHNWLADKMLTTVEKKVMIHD

[5] = target: T2, 5-hydroxytryptamine receptor 3A (Homo sapiens, UniProt P46098)
T2 sequence (P46098 whole entry): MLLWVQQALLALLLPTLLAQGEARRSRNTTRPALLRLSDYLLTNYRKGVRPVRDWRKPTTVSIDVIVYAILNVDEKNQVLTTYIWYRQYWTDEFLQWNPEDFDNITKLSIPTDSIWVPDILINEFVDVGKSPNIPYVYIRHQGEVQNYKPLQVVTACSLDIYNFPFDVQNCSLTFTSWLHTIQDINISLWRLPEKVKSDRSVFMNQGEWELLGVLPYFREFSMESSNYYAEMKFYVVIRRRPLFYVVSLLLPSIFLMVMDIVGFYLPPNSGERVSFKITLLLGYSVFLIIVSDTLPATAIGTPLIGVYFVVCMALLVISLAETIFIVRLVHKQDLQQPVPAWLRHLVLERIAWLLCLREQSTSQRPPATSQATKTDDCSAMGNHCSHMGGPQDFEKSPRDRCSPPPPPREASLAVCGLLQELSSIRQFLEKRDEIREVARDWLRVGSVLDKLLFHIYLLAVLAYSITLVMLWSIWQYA

[6] = target: 5-hydroxytryptamine 1D receptor (Bos taurus, UniProt Q8MI13)
Chain of 5-hydroxytryptamine 1D receptor (Q8MI13 whole entry): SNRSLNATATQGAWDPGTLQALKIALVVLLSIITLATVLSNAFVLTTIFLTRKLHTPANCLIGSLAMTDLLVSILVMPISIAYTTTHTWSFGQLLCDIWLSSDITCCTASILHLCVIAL

[7] = target: 5-hydroxytryptamine receptor 5A (Homo sapiens, UniProt P47898)
Chain of 5-hydroxytryptamine receptor 5A (P47898 whole entry): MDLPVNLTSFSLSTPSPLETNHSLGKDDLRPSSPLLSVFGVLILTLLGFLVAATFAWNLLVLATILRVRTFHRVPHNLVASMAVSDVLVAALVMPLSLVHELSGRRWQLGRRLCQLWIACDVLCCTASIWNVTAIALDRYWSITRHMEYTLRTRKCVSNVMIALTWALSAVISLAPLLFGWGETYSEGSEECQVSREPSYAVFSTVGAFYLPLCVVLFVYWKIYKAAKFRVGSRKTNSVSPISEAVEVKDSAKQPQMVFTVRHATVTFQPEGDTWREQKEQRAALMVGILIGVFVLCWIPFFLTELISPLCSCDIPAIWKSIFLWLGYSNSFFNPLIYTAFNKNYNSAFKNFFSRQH

[8] = target: 5-hydroxytryptamine receptor 1B (Canis lupus familiaris, UniProt P79250)
Chain of 5-hydroxytryptamine receptor 1B (P79250 whole entry): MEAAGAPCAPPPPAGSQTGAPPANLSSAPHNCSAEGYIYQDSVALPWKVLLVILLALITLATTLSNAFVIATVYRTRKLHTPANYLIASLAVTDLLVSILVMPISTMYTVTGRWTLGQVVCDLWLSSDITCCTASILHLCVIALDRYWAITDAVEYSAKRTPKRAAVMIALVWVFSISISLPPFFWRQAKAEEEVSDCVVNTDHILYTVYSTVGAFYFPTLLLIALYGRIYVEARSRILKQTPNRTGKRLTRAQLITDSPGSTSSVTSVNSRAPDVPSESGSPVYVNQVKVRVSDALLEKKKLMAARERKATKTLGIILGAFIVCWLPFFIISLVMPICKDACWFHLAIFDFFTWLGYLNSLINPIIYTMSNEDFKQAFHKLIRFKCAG

[9] = target: T3, Alpha-2A adrenergic receptor (Homo sapiens, UniProt P08913)
T3 sequence (P08913 whole entry): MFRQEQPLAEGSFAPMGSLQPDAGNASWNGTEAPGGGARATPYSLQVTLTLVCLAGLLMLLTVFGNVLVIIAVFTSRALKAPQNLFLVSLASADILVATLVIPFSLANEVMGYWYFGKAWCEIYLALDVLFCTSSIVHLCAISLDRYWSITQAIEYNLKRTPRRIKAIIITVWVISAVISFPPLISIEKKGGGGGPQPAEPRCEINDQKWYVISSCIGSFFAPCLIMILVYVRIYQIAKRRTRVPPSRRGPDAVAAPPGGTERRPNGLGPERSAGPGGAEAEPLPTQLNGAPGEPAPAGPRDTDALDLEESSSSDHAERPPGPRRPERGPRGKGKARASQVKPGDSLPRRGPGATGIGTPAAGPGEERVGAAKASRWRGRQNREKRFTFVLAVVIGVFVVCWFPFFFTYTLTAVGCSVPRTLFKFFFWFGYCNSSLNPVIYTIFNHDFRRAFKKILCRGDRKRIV

Chain of 5-hydroxytryptamine receptor 2B (P41595 whole entry): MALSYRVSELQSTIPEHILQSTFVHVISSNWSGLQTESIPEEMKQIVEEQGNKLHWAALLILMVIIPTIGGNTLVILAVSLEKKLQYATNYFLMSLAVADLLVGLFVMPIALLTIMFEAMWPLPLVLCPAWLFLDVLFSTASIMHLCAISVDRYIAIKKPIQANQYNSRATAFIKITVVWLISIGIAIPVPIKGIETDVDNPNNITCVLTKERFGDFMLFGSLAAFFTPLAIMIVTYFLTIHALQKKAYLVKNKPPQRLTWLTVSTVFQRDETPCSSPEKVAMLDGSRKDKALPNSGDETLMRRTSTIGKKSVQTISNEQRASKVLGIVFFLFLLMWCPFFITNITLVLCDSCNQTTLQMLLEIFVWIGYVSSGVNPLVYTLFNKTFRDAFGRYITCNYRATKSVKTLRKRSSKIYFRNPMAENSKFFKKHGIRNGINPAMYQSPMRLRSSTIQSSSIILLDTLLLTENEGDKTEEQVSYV
Chain of 5-hydroxytryptamine receptor 2A (P28223 whole entry): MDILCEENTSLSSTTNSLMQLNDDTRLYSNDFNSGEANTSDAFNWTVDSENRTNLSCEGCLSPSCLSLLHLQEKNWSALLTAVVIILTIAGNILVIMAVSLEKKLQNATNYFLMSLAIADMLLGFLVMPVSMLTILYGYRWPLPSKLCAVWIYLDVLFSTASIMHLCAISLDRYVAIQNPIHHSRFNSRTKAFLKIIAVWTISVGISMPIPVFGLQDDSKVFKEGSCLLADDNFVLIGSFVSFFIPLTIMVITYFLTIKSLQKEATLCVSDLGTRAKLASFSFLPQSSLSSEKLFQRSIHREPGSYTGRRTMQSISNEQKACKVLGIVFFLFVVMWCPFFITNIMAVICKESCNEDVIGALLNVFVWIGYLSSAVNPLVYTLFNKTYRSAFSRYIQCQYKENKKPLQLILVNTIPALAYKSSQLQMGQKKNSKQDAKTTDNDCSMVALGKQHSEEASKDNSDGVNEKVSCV

Row | Structure (SMILES) | Ki [1] [nM] | Ki [2] [nM] | Ki [3] [nM] | Ki [4] [nM] | Ki [5] [nM] | Ki [6] [nM] | Ki [7] [nM] | Ki [8] [nM] | Ki [9] [nM]
1 | CC(N)Cn1ccc2cc(F)c(Cl)cc21 (configuration not stated) [NSC_3045226] | 24 | 2.4 | 19 | – | – | – | – | – | –
2 | CCc1cc2c(ccc3cnn(CC(C)N)c32)o1 (configuration not stated) [CAS_3045225] | 13 | 2.5 | 0.89 | 177 | 1000 | 481 | 1000 | 1000 | 126
